Data from patent publication US20210253575A1, “PYRROLIDINE AMINE COMPOUNDS FOR THE TREATMENT OF AUTOIMMUNE DISEASE” (Hoffmann-La Roche Inc., priority 2018, published 2021).

biological target: T1, human TLR8 (Homo sapiens, UniProt Q9NR97); assay: HEK293-Blue-hTLR-8 cells assay (SEAP reporter, R848 stimulation); assay type: cell-based; details: HEK293-Blue-hTLR8 cells, R848 ligand, 20 hrs incubation
T1 sequence (Q9NR97 27-1041): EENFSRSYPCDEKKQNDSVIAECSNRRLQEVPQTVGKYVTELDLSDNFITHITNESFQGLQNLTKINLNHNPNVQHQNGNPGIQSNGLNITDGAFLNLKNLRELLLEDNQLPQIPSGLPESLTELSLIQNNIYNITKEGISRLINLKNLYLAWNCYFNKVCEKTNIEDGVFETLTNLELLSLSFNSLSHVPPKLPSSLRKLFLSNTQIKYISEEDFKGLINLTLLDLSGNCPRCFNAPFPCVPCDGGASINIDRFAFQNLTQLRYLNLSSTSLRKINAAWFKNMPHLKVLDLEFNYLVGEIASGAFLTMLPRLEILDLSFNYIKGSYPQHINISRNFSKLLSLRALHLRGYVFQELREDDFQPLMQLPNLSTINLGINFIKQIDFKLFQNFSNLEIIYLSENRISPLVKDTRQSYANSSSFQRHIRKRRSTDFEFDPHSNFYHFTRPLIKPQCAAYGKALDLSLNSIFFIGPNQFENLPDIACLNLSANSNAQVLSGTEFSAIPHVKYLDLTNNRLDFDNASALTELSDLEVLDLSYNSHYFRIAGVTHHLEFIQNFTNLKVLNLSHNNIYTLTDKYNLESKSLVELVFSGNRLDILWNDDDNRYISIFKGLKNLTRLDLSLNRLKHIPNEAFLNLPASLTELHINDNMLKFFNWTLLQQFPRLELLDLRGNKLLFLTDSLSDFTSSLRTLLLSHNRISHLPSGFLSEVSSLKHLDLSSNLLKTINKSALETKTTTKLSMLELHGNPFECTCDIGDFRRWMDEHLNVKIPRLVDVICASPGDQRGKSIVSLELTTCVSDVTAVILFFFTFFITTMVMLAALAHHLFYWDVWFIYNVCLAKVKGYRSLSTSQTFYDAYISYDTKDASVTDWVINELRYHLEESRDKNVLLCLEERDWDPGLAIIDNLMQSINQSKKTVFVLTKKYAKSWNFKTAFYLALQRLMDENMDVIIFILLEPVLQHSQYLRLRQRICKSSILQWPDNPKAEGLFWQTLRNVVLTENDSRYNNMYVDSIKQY
Experimental: The following tests were carried out in order to determine the activity of the compounds of formula (I) in HEK293-Blue-hTLR-7/8/9 cells assay.
HEK293-Blue-hTLR-8 Cells Assay:
A stable HEK293-Blue-hTLR-8 cell line was purchased from InvivoGen (Cat. #: hkb-htlr8, San Diego, Calif., USA). These cells were originally designed for studying the stimulation of human TLR8 by monitoring the activation of NF-κB. A SEAP (secreted embryonic alkaline phosphatase) reporter gene was placed under the control of the IFN-β minimal promoter fused to five NF-κB and AP-1-binding sites. The SEAP was induced by activating NF-κB and AP-1 via stimulating HEK-Blue hTLR8 cells with TLR8 ligands. Therefore the reporter expression was declined by TLR8 antagonist under the stimulation of a ligand, such as R848, for incubation of 20 hrs. The cell culture supernatant SEAP reporter activity was determined using QUANTI-Blue™ kit (Cat. #: rep-qb1, Invivogen, San Diego, Ca, USA) at a wavelength of 640 nm, a detection medium that turns purple or blue in the presence of alkaline phosphatase.
HEK293-Blue-hTLR8 cells were incubated at a density of 250,000˜450,000 cells/mL in a volume of 170 μL in a 96-well plate in Dulbecco's Modified Eagle's medium (DMEM) containing 4.5 g/L glucose, 50 U/mL penicillin, […], […], 2 mM L-glutamine, 10% (v/v) heat-inactivated fetal bovine serum with addition of 20 μL test compound in a serial dilution in the presence of final DMSO at 1% and 10 μL of 60 uM R848 in above DMEM, perform incubation under 37° C. in a CO2 incubator for 20 hrs. Then 20 μL of the supernatant from each well was incubated with 180 μL Quanti-blue substrate solution at 37° C. for 2 hrs and the absorbance was read at 620-655 nm using a spectrophotometer. The signalling pathway that TLR8 activation leads to downstream NF-κB activation has been widely accepted, and therefore similar reporter assay was modified for evaluating TLR8 antagonist.

**Q.** Which IC50 does the source give for `N#Cc1ccc(N2CC(CN3CCC4(CCNCC4)CC3)C3(CC3)C2)c2nccnc12` (centres unmarked) [Example 16, 8-[7-(3,9-Diazaspiro[5.5]undecan-3-ylmethyl)-5-azaspiro[2.4]heptan-5-yl]quinoxaline-5-carbonitrile] here?
**A.** Its IC50 is 133 nM.

**Q.** For `C[C@H]1CN(c2ccc(C#N)c3nccnc23)C[C@@H]1CN1CCC2(CCNCC2)CC1` [Example 17, 8-[(3S,4R)-3-(3,9-diazaspiro[5.5]undecan-3-ylmethyl)-4-methyl-pyrrolidin-1-yl]quinoxaline-5-carbonitrile], which IC50 is on record?
**A.** Its IC50 is 65 nM.

**Q.** With `N#Cc1ccc(N2CC(CN3C[C@H]4CNC[C@H]4C3)C3(CC3)C2)c2nccnc12` (stereo partly drawn) [Example 18, 8-[7-[[(3aR,6aS)-2,3,3a,4,6,6a-hexahydro-H-pyrrolo[3,4-c]pyrrol-5-yl]methyl]-5-azaspiro[2.4]heptan-5-yl]quinoxaline-5-carbonitrile] as the compound, how does the IC50 read?
**A.** Its IC50 is 82 nM.

**Q.** How did the IC50 turn out when `FC(F)(F)c1ccc(N2CC(CN3CCNCC3)C3(CC3)C2)c2nccnc12` (centres unmarked) [Example 20, 5-[7-(Piperazin-1-ylmethyl)-5-azaspiro[2.4]heptan-5-yl]-8-(trifluoromethyl)quinoxaline] was run?
**A.** The IC50 was 68 nM.

**Q.** Which IC50 does the source give for `N#Cc1ccc(N2CC(CN3CCC4(CCCNC4)C3)C3(CC3)C2)c2nccnc12` (centres unmarked) [Example 22, 8-[7-(2,9-Diazaspiro[4.5]decan-2-ylmethyl)-5-azaspiro[2.4]heptan-5-yl]quinoxaline-5-carbonitrile] here?
**A.** The IC50 was 79 nM.

**Q.** `C[C@H]1CN(c2ccc(C#N)c3ncccc23)C[C@@H]1CN1CCC2(CCNCC2)CC1` [Example 23, 5-[(3S,4R)-3-(3,9-diazaspiro[5.5]undecan-3-ylmethyl)-4-methyl-pyrrolidin-1-yl]quinoline-8-carbonitrile] was tested. Which IC50 did it give?
**A.** Its IC50 is 266 nM.

**Q.** How did the IC50 turn out when `N#Cc1ccc(N2CC(CN3CC4(CCCNC4)C3)C3(CC3)C2)c2nccnc12` (centres unmarked) [Example 24, 8-[7-(2,8-Diazaspiro[3.5]nonan-2-ylmethyl)-5-azaspiro[2.4]heptan-5-yl]quinoxaline-5-carbonitrile] was run?
**A.** The IC50 was 63 nM.

**Q.** With `N#Cc1ccc(N2CC(CN3C4CCC3CC(N)C4)C3(CC3)C2)c2nccnc12` (centres unmarked) [Example 25, 8-[7-[(3-Amino-8-azabicyclo[3.2.1]octan-8-yl)methyl]-5-azaspiro[2.4]heptan-5-yl]quinoxaline-5-carbonitrile] as the compound, how does the IC50 read?
**A.** The IC50 was 108 nM.

**Q.** `N#Cc1ccc(N2C[C@H](CN3CCC(N)CC3)[C@@H](C(F)(F)F)C2)c2nccnc12` [Example 26, 8-[(3S,4R)-3-[(4-Amino-1-piperidyl)methyl]-4-(trifluoromethyl)pyrrolidin-1-yl]quinoxaline-5-carbonitrile] was tested. Which IC50 did it give?
**A.** The IC50 was 21 nM.

**Q.** With `C[C@H]1CN(c2ccc(C#N)c3nccnc23)C[C@@H]1CN1CCC2(CCNC2)C1` (stereo partly drawn) [Example 30, 8-[(3S,4R)-3-(2,7-diazaspiro[4.4]nonan-2-ylmethyl)-4-methyl-pyrrolidin-1-yl]quinoxaline-5-carbonitrile] as the compound, how does the IC50 read?
**A.** The IC50 was 72 nM.

**Q.** `FC(F)(F)c1ccc(N2CC(CN3CCC4(CCNCC4)CC3)C3(CC3)C2)c2nccnc12` (centres unmarked) [Example 31, 3-[[5-[8-(Trifluoromethyl)quinoxalin-5-yl]-5-azaspiro[2.4]heptan-7-yl]methyl]-3,9-diazaspiro[5.5]undecane] was tested. Which IC50 did it give?
**A.** Its IC50 is 418 nM.

**Q.** How did the IC50 turn out when `N#Cc1ccc(N2CC(CN3CCC4(CCNCC4)C3)C3(CC3)C2)c2nccnc12` (centres unmarked) [Example 32, 8-[7-(2,8-Diazaspiro[4.5]decan-2-ylmethyl)-5-azaspiro[2.4]heptan-5-yl]quinoxaline-5-carbonitrile] was run?
**A.** The IC50 was 111 nM.

**Q.** With `C[C@H]1CN(c2ccc(C#N)c3ncccc23)C[C@@H]1CN1CCC2(CCNC2)C1` (stereo partly drawn) [Example 35, 5-[(3S,4R)-3-(2,7-diazaspiro[4.4]nonan-2-ylmethyl)-4-methyl-pyrrolidin-1-yl]quinoline-8-carbonitrile] as the compound, how does the IC50 read?
**A.** Its IC50 is 245 nM.

**Q.** `N#Cc1ccc(N2CCC(CN3CCC4(CCNCC4)CC3)C2)c2nccnc12` (centres unmarked) [Example 37, 8-[3-(3,9-Diazaspiro[5.5]undecan-3-ylmethyl)pyrrolidin-1-yl]quinoxaline-5-carbonitrile] was tested. Which IC50 did it give?
**A.** Its IC50 is 531 nM.

**Q.** How did the IC50 turn out when `N#Cc1ccc(N2CC(CNC3CCCNCC3)C3(CC3)C2)c2nccnc12` (centres unmarked) [Example 39, 8-[7-[(Azepan-4-ylamino)methyl]-5-azaspiro[2.4]heptan-5-yl]quinoxaline-5-carbonitrile] was run?
**A.** Its IC50 is 132 nM.

**Q.** How did the IC50 turn out when `C[C@@H]1CN(c2ccc(C(F)(F)F)c3nccnc23)C[C@H]1CNC1CCCNCC1` (some centres unmarked) [Example 40] was run?
**A.** Its IC50 is 742 nM.

**Q.** With `FC(F)(F)c1ccc(N2CC(CN3C[C@H]4CNC[C@H]4C3)C3(CC3)C2)c2nccnc12` (stereo partly drawn) [Example 41, 5-[7-[[(3aR,6aS)-2,3,3a,4,6,6a-hexahydro-H-pyrrolo[3,4-c]pyrrol-5-yl]methyl]-5-azaspiro[2.4]heptan-5-yl]-8-(trifluoromethyl)quinoxaline] as the compound, how does the IC50 read?
**A.** The IC50 was 357 nM.

**Q.** With `N#Cc1ccc(N2CC(CN3CC4(CC(N)C4)C3)C3(CC3)C2)c2nccnc12` (centres unmarked) [Example 42, 8-[7-[(6-Amino-2-azaspiro[3.3]heptan-2-yl)methyl]-5-azaspiro[2.4]heptan-5-yl]quinoxaline-5-carbonitrile] as the compound, how does the IC50 read?
**A.** The IC50 was 161 nM.

**Q.** For `N#Cc1ccc(N2CC(CN3CCC4(CCNC4)C3)C3(CC3)C2)c2cccnc12` (centres unmarked) [Example 43, 5-[7-(2,7-Diazaspiro[4.4]nonan-2-ylmethyl)-5-azaspiro[2.4]heptan-5-yl]quinoline-8-carbonitrile], which IC50 is on record?
**A.** The IC50 was 718 nM.

**Q.** For `N#Cc1ccc(N2C[C@H](CN3CCC4(CCCNC4)CC3)[C@@H](C(F)(F)F)C2)c2nccnc12` [Example 45, 8-[(3S,4R)-3-(2,9-diazaspiro[5.5]undecan-9-ylmethyl)-4-(trifluoromethyl)pyrrolidin-1-yl]quinoxaline-5-carbonitrile], which IC50 is on record?
**A.** Its IC50 is 32 nM.

**Q.** For `N#Cc1ccc(N2C[C@H](CN3CCC4(CCNCC4)C3)[C@@H](C(F)(F)F)C2)c2nccnc12` [Example 46, 8-[(3S,4R)-3-(2,8-diazaspiro[4.5]decan-2-ylmethyl)-4-(trifluoromethyl)pyrrolidin-1-yl]quinoxaline-5-carbonitrile], which IC50 is on record?
**A.** Its IC50 is 67 nM.

**Q.** With `N#Cc1ccc(N2C[C@H](CN3CC4(CC(N)C4)C3)[C@@H](C(F)(F)F)C2)c2nccnc12` [Example 47, 8-[(3S,4R)-3-[(6-amino-2-azaspiro[3.3]heptan-2-yl)methyl]-4-(trifluoromethyl)pyrrolidin-1-yl]quinoxaline-5-carbonitrile] as the compound, how does the IC50 read?
**A.** Its IC50 is 74 nM.

**Q.** How did the IC50 turn out when `N#Cc1ccc(N2C[C@H](CN3CC4(CCNCC4)C3)[C@@H](C(F)(F)F)C2)c2nccnc12` [Example 48, 8-[(3S,4R)-3-(2,7-diazaspiro[3.5]nonan-2-ylmethyl)-4-(trifluoromethyl)pyrrolidin-1-yl]quinoxaline-5-carbonitrile] was run?
**A.** Its IC50 is 37 nM.

**Q.** `N#Cc1ccc(N2CC(CN3CCC4(CC3)CNCCO4)C3(CC3)C2)c2nccnc12` (centres unmarked) [Example 49, 8-[7-(1-Oxa-4,9-diazaspiro[5.5]undecan-9-ylmethyl)-5-azaspiro[2.4]heptan-5-yl]quinoxaline-5-carbonitrile] was tested. Which IC50 did it give?
**A.** The IC50 was 24 nM.

**Q.** How did the IC50 turn out when `N#Cc1ccc(N2CC(CN3CC4CCNCC43)C3(CC3)C2)c2nccnc12` (centres unmarked) [Example 50, 8-[7-(3,8-Diazabicyclo[4.2.0]octan-8-ylmethyl)-5-azaspiro[2.4]heptan-5-yl]quinoxaline-5-carbonitrile] was run?
**A.** The IC50 was 38 nM.

**Q.** For `N#Cc1ccc(N2C[C@H](CN3CCC(N)CC3)[C@@H](C(F)(F)F)C2)c2nccnc12` [Example 51, 8-[(3S,4R)-3-[(4-amino-1-piperidyl)methyl]-4-(trifluoromethyl)pyrrolidin-1-yl]quinoxaline-5-carbonitrile], which IC50 is on record?
**A.** The IC50 was 57 nM.
